Laboratory results from patent US20080103048A1, “Methods for the production of granular composite pesticidal compositions and the compositions produced thereby” (priority 2006, published 2008).

Assay: Solubility of non-cyano containing pyrethroids in non-polar solvents
Format: physicochemical
Procedure: Specifically, samples were prepared in 4 ounce glass bottles by combining the non-cyano containing pyrethroids Bifenthrin Technical (supplied by FMC Corporation) and Permethrin Technical sold by Gharda USA, Inc with various non-polar solvents at 10%, 25% and 50% rates by mass (total mass of each sample being 40 grams) so that the 10% formulation contained 4 g of the pyrethroid and 36 g solvent; the 25% formulation contained 10 g of the pyrethroid and 30 g solvent; and the 50% formulation contained 20 g of the pyrethroid and 20 g solvent. Each of the resulting solutions was stirred vigorously in the bottles until a clear solution was obtained. The initial temperatures of the solutions in each of bottles was recorded before the bottles were heated on a laboratory hot plate Each of the solutions was stirred constantly while the solution was being heated on the hot plate and the solutions were frequently observed for signs of any visible separation between the solvent and the solute. […] The final temperature of the solutions in each of the bottles was recorded and it was noted that the temperature required to achieve full miscibility of the pyrethroids in the solvents was up to about 80° C.
In the following Table III, each of the non-cyano containing pyrethroids that were tested and each of the non-polar solvents which were employed with such pyrethroids are listed as well as the initial temperature of the solution and the final temperature resulting in full miscibility of the components.

[1] = Canola Oil (Stepsol ROW-W), 10% pyrethroid by mass
[2] = Canola Oil (Stepsol ROW-W), 25% pyrethroid by mass
[3] = Canola Oil (Stepsol ROW-W), 50% pyrethroid by mass
[4] = Polybutene H-7, 10% pyrethroid by mass
[5] = Polybutene H-7, 25% pyrethroid by mass
[6] = Polybutene H-7, 50% pyrethroid by mass
[7] = Polybutene H-8, 10% pyrethroid by mass
[8] = Polybutene H-8, 25% pyrethroid by mass
[9] = Polybutene H-8, 50% pyrethroid by mass
[10] = Polybutene L-14, 10% pyrethroid by mass
[11] = Polybutene L-14, 25% pyrethroid by mass
[12] = Polybutene L-14, 50% pyrethroid by mass
[13] = Polybutene L-50, 10% pyrethroid by mass
[14] = Polybutene L-50, 25% pyrethroid by mass
[15] = Polybutene L-50, 50% pyrethroid by mass
[16] = Safflower Oil, 10% pyrethroid by mass
[17] = Safflower Oil, 25% pyrethroid by mass
[18] = Safflower Oil, 50% pyrethroid by mass

Row | SMILES | Final Temp. (resulting in full miscibility) [1] [°C] | Final Temp. (resulting in full miscibility) [2] [°C] | Final Temp. (resulting in full miscibility) [3] [°C] | Final Temp. (resulting in full miscibility) [4] [°C] | Final Temp. (resulting in full miscibility) [5] [°C] | Final Temp. (resulting in full miscibility) [6] [°C] | Final Temp. (resulting in full miscibility) [7] [°C] | Final Temp. (resulting in full miscibility) [8] [°C] | Final Temp. (resulting in full miscibility) [9] [°C] | Final Temp. (resulting in full miscibility) [10] [°C] | Final Temp. (resulting in full miscibility) [11] [°C] | Final Temp. (resulting in full miscibility) [12] [°C] | Final Temp. (resulting in full miscibility) [13] [°C] | Final Temp. (resulting in full miscibility) [14] [°C] | Final Temp. (resulting in full miscibility) [15] [°C] | Final Temp. (resulting in full miscibility) [16] [°C] | Final Temp. (resulting in full miscibility) [17] [°C] | Final Temp. (resulting in full miscibility) [18] [°C] | solubility and stability in polybutene L-14 (over a range of concentrations)
1 | Cc1c(COC(=O)[C@H]2[C@@H](/C=C(/Cl)C(F)(F)F)C2(C)C)cccc1-c1ccccc1 [Bifenthrin Tech., bifenthrin] | 45 | 57 | 74 | 45 | 41 | 41 | 37 | 50 | 36 | 30 | 40 | 43 | 37 | 35 | 43 | 80 | 80 | 80 | soluble and stable
2 | CC1(C)C(C=C(Cl)Cl)C1C(=O)OCc1cccc(Oc2ccccc2)c1 (stereo not shown) [Permethrin Tech., permethrin] | 26 | 27 | 30 | 29 | 33 | 50 | 51 | 54 | 62 | 26 | 28 | 31 | 35 | 51 | 54 | 80 | 80 | 80 | 
